The values that follow come from ChEMBL document CHEMBL5678818, “Discovery of potent SOS1 inhibitors that block RAS activation via disruption of the RAS-SOS1 interaction” (Proc Natl Acad Sci U S A, 2019).

The target in test [1] is Serine/threonine-protein kinase WNK2 (Homo sapiens) (UniProt Q9Y3S1). Briefly: Inhibition of WNK2 (unknown origin) assessed as residual activity at 1000 nM by KINOMEscan analysis relative to control.
The target of test [2] is Tyrosine-protein kinase ABL2 (Homo sapiens) (UniProt P42684). Briefly: Inhibition of ABL2 (unknown origin) assessed as residual activity at 100 nM by KINOMEscan analysis relative to control.
Sequence of Tyrosine-protein kinase ABL2 (Homo sapiens) (P42684 whole entry): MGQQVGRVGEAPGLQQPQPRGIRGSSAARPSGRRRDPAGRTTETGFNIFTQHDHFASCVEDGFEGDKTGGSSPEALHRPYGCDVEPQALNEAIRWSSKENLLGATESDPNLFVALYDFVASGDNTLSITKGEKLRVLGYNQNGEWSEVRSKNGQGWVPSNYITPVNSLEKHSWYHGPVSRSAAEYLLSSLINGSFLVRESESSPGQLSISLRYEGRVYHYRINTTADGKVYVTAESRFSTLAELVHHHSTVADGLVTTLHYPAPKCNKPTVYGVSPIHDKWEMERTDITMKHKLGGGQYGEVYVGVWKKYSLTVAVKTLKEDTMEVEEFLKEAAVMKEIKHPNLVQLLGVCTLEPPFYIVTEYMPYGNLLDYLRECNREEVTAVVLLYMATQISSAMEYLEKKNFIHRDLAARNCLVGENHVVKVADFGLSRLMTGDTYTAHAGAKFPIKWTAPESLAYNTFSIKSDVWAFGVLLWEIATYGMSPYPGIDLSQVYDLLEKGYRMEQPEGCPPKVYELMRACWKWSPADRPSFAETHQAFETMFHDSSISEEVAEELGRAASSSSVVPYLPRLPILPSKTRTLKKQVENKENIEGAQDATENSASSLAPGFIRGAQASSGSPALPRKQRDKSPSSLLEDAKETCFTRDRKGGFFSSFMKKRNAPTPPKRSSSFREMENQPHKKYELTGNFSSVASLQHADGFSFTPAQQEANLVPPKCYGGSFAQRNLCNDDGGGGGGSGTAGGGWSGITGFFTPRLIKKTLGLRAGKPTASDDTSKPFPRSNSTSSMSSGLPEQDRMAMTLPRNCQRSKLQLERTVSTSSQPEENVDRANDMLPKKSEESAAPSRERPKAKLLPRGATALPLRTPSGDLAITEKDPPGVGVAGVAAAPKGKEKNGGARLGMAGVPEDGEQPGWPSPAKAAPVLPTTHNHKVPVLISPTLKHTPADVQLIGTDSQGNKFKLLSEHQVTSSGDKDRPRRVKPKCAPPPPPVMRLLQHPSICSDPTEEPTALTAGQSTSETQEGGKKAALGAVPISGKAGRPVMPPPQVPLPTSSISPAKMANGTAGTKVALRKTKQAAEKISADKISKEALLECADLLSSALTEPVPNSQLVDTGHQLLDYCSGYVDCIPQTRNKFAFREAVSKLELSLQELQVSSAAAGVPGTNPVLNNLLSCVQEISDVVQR
Test [3] relates to ALK tyrosine kinase receptor (Homo sapiens), Q9UM73 [C1156Y]. The test can be described thus: Inhibition of ALK C1156Y mutant (unknown origin) assessed as residual activity at 100 nM by KINOMEscan analysis relative to control.
Sequence of ALK tyrosine kinase receptor (Homo sapiens), Q9UM73 [C1156Y] (Q9UM73 whole entry C1156Y, looked up): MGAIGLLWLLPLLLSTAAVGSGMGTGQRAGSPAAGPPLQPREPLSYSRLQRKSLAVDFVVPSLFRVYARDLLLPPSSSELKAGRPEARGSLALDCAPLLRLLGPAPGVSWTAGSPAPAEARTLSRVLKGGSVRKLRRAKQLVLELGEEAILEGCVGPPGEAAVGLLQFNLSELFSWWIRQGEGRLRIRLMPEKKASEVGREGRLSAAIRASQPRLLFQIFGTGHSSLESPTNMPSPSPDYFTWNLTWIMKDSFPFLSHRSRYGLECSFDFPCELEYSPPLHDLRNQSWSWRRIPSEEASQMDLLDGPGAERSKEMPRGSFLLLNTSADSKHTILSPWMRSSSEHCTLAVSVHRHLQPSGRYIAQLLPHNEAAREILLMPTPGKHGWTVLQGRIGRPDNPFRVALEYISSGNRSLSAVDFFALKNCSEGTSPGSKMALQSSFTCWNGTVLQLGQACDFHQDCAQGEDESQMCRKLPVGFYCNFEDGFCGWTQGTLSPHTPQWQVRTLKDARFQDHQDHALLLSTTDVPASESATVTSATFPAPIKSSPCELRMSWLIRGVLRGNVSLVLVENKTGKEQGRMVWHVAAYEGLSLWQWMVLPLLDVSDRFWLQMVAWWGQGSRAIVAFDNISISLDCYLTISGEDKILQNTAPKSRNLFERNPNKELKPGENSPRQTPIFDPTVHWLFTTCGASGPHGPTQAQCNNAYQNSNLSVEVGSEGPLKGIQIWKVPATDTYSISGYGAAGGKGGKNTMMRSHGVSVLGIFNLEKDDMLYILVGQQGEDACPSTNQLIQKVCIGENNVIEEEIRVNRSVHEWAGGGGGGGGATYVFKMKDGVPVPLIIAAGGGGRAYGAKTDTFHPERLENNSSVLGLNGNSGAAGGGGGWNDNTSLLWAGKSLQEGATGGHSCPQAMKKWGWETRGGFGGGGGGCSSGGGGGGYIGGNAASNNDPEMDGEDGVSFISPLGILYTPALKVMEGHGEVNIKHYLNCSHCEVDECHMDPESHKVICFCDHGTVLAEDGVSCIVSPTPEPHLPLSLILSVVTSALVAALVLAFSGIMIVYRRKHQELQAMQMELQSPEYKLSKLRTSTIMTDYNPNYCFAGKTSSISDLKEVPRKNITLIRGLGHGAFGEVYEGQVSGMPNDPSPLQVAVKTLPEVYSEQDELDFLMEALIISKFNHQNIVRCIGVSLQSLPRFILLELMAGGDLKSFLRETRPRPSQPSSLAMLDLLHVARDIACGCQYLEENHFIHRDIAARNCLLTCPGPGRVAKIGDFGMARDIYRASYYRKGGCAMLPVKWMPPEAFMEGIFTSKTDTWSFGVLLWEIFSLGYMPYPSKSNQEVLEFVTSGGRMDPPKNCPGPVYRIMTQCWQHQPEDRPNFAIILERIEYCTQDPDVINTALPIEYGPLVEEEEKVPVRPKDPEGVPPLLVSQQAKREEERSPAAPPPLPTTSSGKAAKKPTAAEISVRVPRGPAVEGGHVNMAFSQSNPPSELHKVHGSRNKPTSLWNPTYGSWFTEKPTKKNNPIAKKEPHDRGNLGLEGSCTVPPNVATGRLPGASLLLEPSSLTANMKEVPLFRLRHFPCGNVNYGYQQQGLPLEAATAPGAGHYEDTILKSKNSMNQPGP
Test [4] deals with Calcium/calmodulin-dependent protein kinase kinase 1 (Homo sapiens) (UniProt Q8N5S9). Briefly: Inhibition of CAMKK1 (unknown origin) assessed as residual activity at 100 nM by KINOMEscan analysis relative to control.
Sequence of Calcium/calmodulin-dependent protein kinase kinase 1 (Homo sapiens) (Q8N5S9 whole entry, looked up): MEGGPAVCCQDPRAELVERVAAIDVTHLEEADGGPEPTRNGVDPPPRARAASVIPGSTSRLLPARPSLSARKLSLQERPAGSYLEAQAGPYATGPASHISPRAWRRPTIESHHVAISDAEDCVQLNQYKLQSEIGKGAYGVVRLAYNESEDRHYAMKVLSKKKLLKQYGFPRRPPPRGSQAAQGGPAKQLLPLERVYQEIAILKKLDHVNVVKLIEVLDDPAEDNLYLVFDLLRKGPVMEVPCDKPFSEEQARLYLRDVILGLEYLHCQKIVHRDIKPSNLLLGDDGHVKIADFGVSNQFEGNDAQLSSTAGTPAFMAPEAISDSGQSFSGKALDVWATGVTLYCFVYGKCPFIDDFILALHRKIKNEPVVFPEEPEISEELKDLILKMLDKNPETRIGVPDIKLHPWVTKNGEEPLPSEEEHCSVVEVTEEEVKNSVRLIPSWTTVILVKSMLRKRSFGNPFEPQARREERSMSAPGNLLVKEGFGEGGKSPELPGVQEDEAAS
The target in test [5] is Cyclin-dependent kinase 2 (Homo sapiens) (UniProt P24941). The test can be described thus: Inhibition of CDK2 (unknown origin) assessed as residual activity at 100 nM by KINOMEscan analysis relative to control.
In test [6] the target is Mitogen-activated protein kinase 1 (Homo sapiens) (UniProt P28482). Briefly: Inhibition of ERK2 (unknown origin) assessed as residual activity at 100 nM by KINOMEscan analysis relative to control.
Sequence of Mitogen-activated protein kinase 1 (Homo sapiens) (P28482 whole entry): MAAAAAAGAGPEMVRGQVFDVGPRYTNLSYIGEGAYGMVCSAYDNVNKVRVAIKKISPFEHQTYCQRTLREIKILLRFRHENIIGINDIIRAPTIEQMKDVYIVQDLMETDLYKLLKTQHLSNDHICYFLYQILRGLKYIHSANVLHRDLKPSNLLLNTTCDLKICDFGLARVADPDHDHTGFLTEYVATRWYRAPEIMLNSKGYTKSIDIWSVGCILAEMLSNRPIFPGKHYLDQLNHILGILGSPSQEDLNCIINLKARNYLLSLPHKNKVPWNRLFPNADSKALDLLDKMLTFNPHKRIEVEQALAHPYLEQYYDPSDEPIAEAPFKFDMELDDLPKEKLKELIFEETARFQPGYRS
The target of test [7] is Insulin receptor-related protein (Homo sapiens) (UniProt P14616). Briefly: Inhibition of INSRR (unknown origin) assessed as residual activity at 100 nM by KINOMEscan analysis relative to control.
Test [8] has as its target T1, Serine/threonine-protein kinase Nek2 (Homo sapiens) (UniProt P51955).
T1 sequence (whole entry): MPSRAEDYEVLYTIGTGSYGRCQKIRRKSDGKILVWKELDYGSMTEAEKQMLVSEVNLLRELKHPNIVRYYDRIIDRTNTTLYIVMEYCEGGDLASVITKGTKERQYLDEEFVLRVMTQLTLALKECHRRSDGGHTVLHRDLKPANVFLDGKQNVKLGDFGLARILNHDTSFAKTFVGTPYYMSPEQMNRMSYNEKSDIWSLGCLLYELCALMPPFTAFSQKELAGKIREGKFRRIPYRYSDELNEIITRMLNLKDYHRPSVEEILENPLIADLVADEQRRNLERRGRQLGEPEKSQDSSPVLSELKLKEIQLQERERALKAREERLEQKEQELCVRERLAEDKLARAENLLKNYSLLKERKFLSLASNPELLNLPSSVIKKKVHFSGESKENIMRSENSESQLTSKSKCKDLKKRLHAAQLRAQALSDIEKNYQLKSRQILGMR
The test can be described thus: Inhibition of NEK2 (unknown origin) assessed as residual activity at 100 nM by KINOMEscan analysis relative to control.

In test [9] the target is T2, cAMP-dependent protein kinase catalytic subunit PRKX (Homo sapiens) (UniProt P51817).
T2 sequence (whole entry): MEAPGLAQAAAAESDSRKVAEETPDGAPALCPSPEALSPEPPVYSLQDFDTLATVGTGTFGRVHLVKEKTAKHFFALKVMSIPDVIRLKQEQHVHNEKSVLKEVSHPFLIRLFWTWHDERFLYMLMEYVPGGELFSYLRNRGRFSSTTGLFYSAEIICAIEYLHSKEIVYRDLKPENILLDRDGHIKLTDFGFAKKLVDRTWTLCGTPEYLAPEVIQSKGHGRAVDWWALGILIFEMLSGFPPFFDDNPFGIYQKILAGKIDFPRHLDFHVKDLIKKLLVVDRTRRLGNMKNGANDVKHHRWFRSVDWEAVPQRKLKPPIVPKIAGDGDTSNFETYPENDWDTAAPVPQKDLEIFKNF
The test can be described thus: Inhibition of PRKX (unknown origin) assessed as residual activity at 100 nM by KINOMEscan analysis relative to control.

The target of test [10] is T3, Serine/threonine-protein kinase RIO1 (Homo sapiens) (UniProt Q9BRS2).
T3 sequence (whole entry): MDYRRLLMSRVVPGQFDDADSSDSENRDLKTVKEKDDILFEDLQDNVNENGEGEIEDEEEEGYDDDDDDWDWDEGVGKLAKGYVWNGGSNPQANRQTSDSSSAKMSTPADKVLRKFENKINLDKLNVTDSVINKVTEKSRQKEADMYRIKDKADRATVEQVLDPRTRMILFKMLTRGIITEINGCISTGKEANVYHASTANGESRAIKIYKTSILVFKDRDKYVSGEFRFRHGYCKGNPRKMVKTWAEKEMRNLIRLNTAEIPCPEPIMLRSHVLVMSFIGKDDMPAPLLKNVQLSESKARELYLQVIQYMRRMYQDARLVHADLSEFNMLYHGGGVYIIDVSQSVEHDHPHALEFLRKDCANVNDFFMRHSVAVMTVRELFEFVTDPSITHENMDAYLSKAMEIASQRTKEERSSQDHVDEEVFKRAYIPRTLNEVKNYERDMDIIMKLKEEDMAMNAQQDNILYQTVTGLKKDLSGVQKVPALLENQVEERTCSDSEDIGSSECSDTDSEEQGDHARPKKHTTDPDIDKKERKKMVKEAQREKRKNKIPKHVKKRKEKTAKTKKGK
Briefly: Inhibition of RIOK1 (unknown origin) assessed as residual activity at 100 nM by KINOMEscan analysis relative to control.

The target of test [11] is Transient receptor potential cation channel subfamily M member 6 (Homo sapiens) (UniProt Q9BX84). The test can be described thus: Inhibition of TRPM6 (unknown origin) assessed as residual activity at 100 nM by KINOMEscan analysis relative to control.
The target of test [12] is Non-receptor tyrosine-protein kinase TYK2 (Homo sapiens) (UniProt P29597). Briefly: Inhibition of TYK2 JH2 pseudokinase domain (unknown origin) assessed as residual activity at 100 nM by KINOMEscan analysis relative to control.
Sequence of Non-receptor tyrosine-protein kinase TYK2 (Homo sapiens) (P29597 whole entry, the tested form may be a part): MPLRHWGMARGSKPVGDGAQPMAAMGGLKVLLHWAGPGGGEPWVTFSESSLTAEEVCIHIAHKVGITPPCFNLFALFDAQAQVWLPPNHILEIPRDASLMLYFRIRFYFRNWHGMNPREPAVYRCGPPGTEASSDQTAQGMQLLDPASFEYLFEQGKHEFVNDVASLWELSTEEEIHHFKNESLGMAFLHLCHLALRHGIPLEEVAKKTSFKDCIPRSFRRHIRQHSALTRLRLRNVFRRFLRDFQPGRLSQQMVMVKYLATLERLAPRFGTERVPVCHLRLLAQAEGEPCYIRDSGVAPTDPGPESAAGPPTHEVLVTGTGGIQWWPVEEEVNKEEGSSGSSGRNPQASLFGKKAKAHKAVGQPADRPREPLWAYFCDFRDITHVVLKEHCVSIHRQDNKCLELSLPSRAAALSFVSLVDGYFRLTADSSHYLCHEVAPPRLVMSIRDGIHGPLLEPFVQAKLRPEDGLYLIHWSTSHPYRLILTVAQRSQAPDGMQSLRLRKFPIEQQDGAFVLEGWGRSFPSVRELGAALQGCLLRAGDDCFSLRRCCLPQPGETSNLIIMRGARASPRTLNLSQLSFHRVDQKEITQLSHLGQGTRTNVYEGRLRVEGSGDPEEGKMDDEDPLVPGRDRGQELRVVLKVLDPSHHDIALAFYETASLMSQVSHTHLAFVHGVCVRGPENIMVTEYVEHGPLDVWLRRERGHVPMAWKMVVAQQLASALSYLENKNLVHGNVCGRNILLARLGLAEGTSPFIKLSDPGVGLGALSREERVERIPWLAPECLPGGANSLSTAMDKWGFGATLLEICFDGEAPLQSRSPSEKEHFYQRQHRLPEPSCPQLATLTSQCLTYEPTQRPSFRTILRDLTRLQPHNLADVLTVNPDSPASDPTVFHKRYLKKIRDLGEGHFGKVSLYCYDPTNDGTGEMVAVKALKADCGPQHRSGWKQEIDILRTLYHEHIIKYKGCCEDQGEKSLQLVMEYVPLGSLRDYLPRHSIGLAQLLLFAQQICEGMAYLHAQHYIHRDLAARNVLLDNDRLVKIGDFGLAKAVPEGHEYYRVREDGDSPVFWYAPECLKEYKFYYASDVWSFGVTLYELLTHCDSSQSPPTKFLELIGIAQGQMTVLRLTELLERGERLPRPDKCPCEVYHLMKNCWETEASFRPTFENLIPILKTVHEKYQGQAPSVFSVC

Regarding `COc1cc2nc(C)nc(N[C@H](C)c3cccc(-c4cn[nH]c4)c3)c2cc1OC`, the Activity in test [1] is 100%.

For `COc1cc2ncnc(N[C@H](C)c3cccc4ccccc34)c2cc1OC`, the Activity in test [2] came to 81%; in [3], 99%; in test [4], 76%; in test [5], 100%; in [6] it was 72%; in test [7], 92%. The Activity in [8] came out at 100%; in test [9], 100%; in test [10] it was 58%; in test [11], 84%; in test [12], 100%.
